Results published in patent US20250152569A1, “TREATMENT OF CELL PROLIFERATION-ASSOCIATED CONDITIONS USING A COMBINATION OF A CLB-B INHIBITOR AND AN ADDITIONAL THERAPEUTIC AGENT” (HOTSPOT THERAPEUTICS, INC., priority 2022, published 2025).

Legend:
Design in all cases: species or system female BALB/c mice
[1] = test system: subcutaneous murine colorectal cancer model CT26.WT; assay: In vivo efficacy study, subcutaneous murine colorectal cancer model CT26.WT (Example 4); conditions: Day 16
Method: The objective of this study was to evaluate preclinically the in vivo therapeutic efficacy of HotSpot Therapeutics's Test Articles in the treatment of the subcutaneous murine Colorectal model CT26.WT in female BALB/c mice. Compound 29 test particles were delivered via PO. Compound 29 was assessed at various dose levels in combination with Oxaliplatin or Cabozantinib. Tumor volumes and body weight were measured three times per week after the initiation of treatment.
The CT26.WT tumor cells were maintained in vitro with RPMI-1640 medium supplemented with 10% fetal bovine serum at 37° C. in an atmosphere of 5% CO2 in air. The cells in exponential growth phase were harvested and quantitated by cell counter before tumor inoculation.
Each mouse was inoculated subcutaneously it the right lower flank region with 5×10^5 tumor cells in 0.1 ml of PBS mixed with Matrigel (1:1) for tumor development.
The randomization started when the mean tumor size reached approximately 86.42 mm^3. 60 mice were enrolled in the study. All animals were randomly allocated to 6 study groups, 10 mice in each group. Randomization was performed based on “Matched distribution” method (StudyDirector™ software, version 3.1.399.19)
The date of randomization was denoted as day 0.
The treatment was initiated on the same day of randomization (day 0) per study design.
After tumor cells inoculation, the animals were checked daily for morbidity and mortality. During routine monitoring, the animals were checked for any effects of tumor growth and treatments on behavior such as mobility, food and water consumption, body weight gain/loss (Body weights were measured twice per week after randomization), eye/hair matting and any other abnormalities. Mortality and observed clinical signs were recorded for individual animals in detail.
Tumor volumes were measured twice per week after randomization in two dimensions using a caliper, and the volume was expressed in mm^3 using the formula: “V=(L×W×W)/2, where V was tumor volume, L was tumor length (the longest tumor dimension) and W was tumor width (the longest tumor dimension perpendicular to L). Dosing as well as tumor and body weight measurements were conducted in a Laminar Flow Cabinet.
The body weights and tumor volumes were measured by using StudyDirector™ software (version 3.1.399.19).
For Group 01 and Group 03 were terminated when the mean tumor volume of the vehicle control group reaches 2000 mm^3 on day 16.
For Group 02, Group 04, Group 05 and Group 06 were performed for 3 weeks. The study was terminated on day 21 (Sep. 21, 2022).
To compare tumor volumes of different groups at a pre-specified day, we first used Bartlett's test to check the assumption of homogeneity of variance across all groups. When the p-value of Bartlett's test was >=0.05, we ran one-way ANOVA to test overall equality of means across all groups. If the p-value of the one-way ANOVA was <0.05, we further performed post hoc testing by running Tukey's HSD (honest significant difference) tests for all pairwise comparisons, and Dunnett's tests for comparing each treatment group with the vehicle group. When the p-value of Bartlett's test was <0.05, we ran Kruskal-Wallis test to test overall equality of medians among all groups. If the p-value the Kruskal-Wallis test was <0.05, we further performed post hoc testing by running Conover's non-parametric test for all pairwise comparisons or for comparing each treatment group with the vehicle group, both with single-step p-value adjustment.
In addition, we performed pairwise comparisons without multiple comparison correction and report nominal/uncorrected p-values directly from Welch's t-test or Mann-Whitney U test at each time point. Specifically, we first used Shapiro Wilk test to check the assumption of normal distribution for each group. When p-values of Shapiro Wilk tests of both groups in a pair are >0.05, we ran Welch's t-test, otherwise we ran Mann-Whitney U test, to obtain nominal p-values. […]

[2] = test system: subcutaneous murine colorectal cancer model CT26.WT; assay: In vivo efficacy study, CT26.WT model, combination with ALT-803 (Example 6); conditions: Compound 29 30 mg/kg p.o. BID in combination with ALT-803 0.2 mg/kg i.p. QW; FIG. 5A, 5B
Method: The objective of this study was to evaluate preclinically the in vivo therapeutic efficacy of Test Articles in the treatment of the subcutaneous murine Colorectal model CT26.WT in female BALB/c mice. Compound 29 test particles were delivered via PO. Compound 29 was assessed at various dose levels in combination with ALT-803. Tumor volumes and body weight were measured three times per week after the initiation of treatment.
The CT26.WT tumor cells will be maintained in vitro with RPMI-1640 medium supplemented with 10% fetal bovine serum at 37° C. in an atmosphere of 5% CO2 in air. The cells in exponential growth phase will be harvested and quantitated by cell counter before tumor inoculation. […]
After tumor cells inoculation, the animals will be checked daily for morbidity and mortality. During routine monitoring, the animals will be checked for any effects of tumor growth and treatments on behavior such as mobility, food and water consumption, body weight gain/loss (Body weights will be measured twice per week after randomization), eye/hair matting and any other abnormalities. Mortality and observed clinical signs will be recorded for individual animals in detail. […]
(§1) The body weights and tumor volumes will be measured by using StudyDirector™ software (version 3.1.399.19). […]

[3] = test system: subcutaneous murine colorectal cancer model CT26.WT; assay: In vivo efficacy study, CT26.WT model, combination with Doxorubicin, Gemcitabine or Paclitaxel (Example 5)
Method: The objective of this study was to evaluate preclinically the in vivo therapeutic efficacy of Test Articles in the treatment of the subcutaneous murine Colorectal model CT26.WT in female BALB/c mice. Compound 29 test particles were delivered via PO. Compound 29 was assessed at various dose levels in combination with Doxorubicin, Gemcitabine or Paclitaxel. Tumor volumes and body weight were measured three times per week after the initiation of treatment.
The CT26.WT tumor cells will be maintained in vitro with RPMI-1640 medium supplemented with 10% fetal bovine serum at 37° C. in an atmosphere of 5% CO2 in air. The cells in exponential growth phase will be harvested and quantitated by cell counter before tumor inoculation.
Each ach mouse will be inoculated subcutaneously in the right lower flank region with CT26 tumor cells (5×10^5) in 0.1 ml of PBS for tumor development.
The randomization will start when the mean tumor size reaches approximately 80-100 mm^3. […] Randomization will be performed based on “Matched distribution” method/“Stratified” method (Study Director™ software, version 3.1.399.19)/randomized block design. The date of randomization will be denoted as day 0. […]
After tumor cells inoculation, the animals will be checked daily for morbidity and mortality. During routine monitoring, the animals will be checked for any effects of tumor growth and treatments on behavior such as mobility, food and water consumption, body weight gain/loss (Body weights will be measured twice per week after randomization), eye/hair matting and any other abnormalities. Mortality and observed clinical signs will be recorded for individual animals in detail.
Tumor volumes will be measured twice per week after randomization in two dimensions using a caliper, and the volume will be expressed in mm^3 using the formula: “V=(L×W×W)/2, where V is tumor volume, L is tumor length (the longest tumor dimension) and W is tumor width (the longest tumor dimension perpendicular to L). […]
as §1

[4] = single agent, Compound 29 60 mg/kg p.o. BID, Oxaliplatin 5 mg/kg i.p. Q4D, Cabozantinib 10 mg/kg p.o. QD
[5] = Compound 29 60 mg/kg p.o. BID in combination with Cabozantinib 10 mg/kg p.o. QD (Group 6)
[6] = Compound 29 60 mg/kg p.o. BID in combination with Oxaliplatin 5 mg/kg i.p. Q4D (Group 5)

## COc1cc2nccc(Oc3ccc(NC(=O)C4(C(=O)Nc5ccc(F)cc5)CC4)cc3)c2cc1OC [Cabozantinib, reference compound]
[1]; [4]
  T/C (%): 30.55%
  TGI (%): 69.45%
  Tumor Volume (mean ± SEM): 772.01 ± 100.44 mm^3

## C[C@H]1CCCN(Cc2cc(C(F)(F)F)c3cn(-c4cccc(C5(Cc6nncn6C)COC5)c4)c(=O)n3c2)C1 [Compound 29]
[2]
  effect on tumor inhibition as compared to each of the agents as monotherapies: improved effect on tumor inhibition
[3]; Compound 29 60 mg/kg p.o. BID in combination with Doxorubicin 4 mg/kg i.v. Q4D, FIG. 2A, 2B
  effect on tumor inhibition as compared to each of the agents as monotherapies: improved effect on tumor inhibition
[3]; Compound 29 60 mg/kg p.o. BID in combination with Gemcitabine 5 mg/kg i.p. Q3D, FIG. 3A, 3B
  effect on tumor inhibition as compared to each of the agents as monotherapies: improved effect on tumor inhibition
[3]; Compound 29 60 mg/kg p.o. BID in combination with Paclitaxel 20 mg/kg i.p. QW, FIG. 4A, 4B
  effect on tumor inhibition as compared to each of the agents as monotherapies: improved effect on tumor inhibition
[1]; [5]
  T/C (%): 25.45%
  TGI (%): 74.55%
  Tumor Volume (mean ± SEM): 643.08 ± 59.79 mm^3
[1]; [6]
  T/C (%): 35.94%
  TGI (%): 64.06%
  Tumor Volume (mean ± SEM): 908.21 ± 76.22 mm^3
[1]; [4]
  T/C (%): 56.42%
  TGI (%): 43.58%
  Tumor Volume (mean ± SEM): 1425.65 ± 232.85 mm^3

## O=C1[O][Pt]2([NH][C@@H]3CCCC[C@H]3[NH]2)[O]C1=O [Oxaliplatin, reference compound]
[1]; [4]
  T/C (%): 103.27%
  TGI (%): −3.27%
  Tumor Volume (mean ± SEM): 2609.42 ± 203.84 mm^3
